Values of other authors in patent US20080033027A1, “Drug combination pharmaceutical compositions and methods for using them” (VICUS THERAPEUTICS SPE 1, LLC, priority 2005, published 2008).
Structures can show the parent of a compound that is named as a salt. Where two headings read alike, the source gives them in different places.

Key:
[1] = for solubility in ethanol / alcohol: alcohol(s)
[2] = for Elimination, Renal (%): share eliminated by the renal route; for Elimination (% unchanged): value in parentheses; for Elimination, Biliary/fecal (%): share eliminated by the biliary/fecal route
[3] = oral EPA, after entering the blood stream
[4] = test system: cachectic severely burned children; cachectic metastatic cancer patients
[5] = cachectic metastatic cancer patients
[6] = cachectic severely burned children

SMILES	Biotransformation ([2]; in vivo)	Half-life ([2]; in vivo) [h]	Removable by Hemodialysis ([2]; in vivo)	Oral Absorp. (%) ([2]; in vivo)	Elimination, Renal (%) [2]	Elimination (route) ([2]; in vivo)	Time to Peak Effect Single dose [2] [h]	Elimination (% unchanged) [2]	other results
COCCc1ccc(OCC(O)CNC(C)C)cc1 (racemic) [Metoprolol tartrate, (±)-1-(isopropylamino)-3-(p-(2-(methoxyethyl)phenoxy)-2-propanol (2:1) dextrotartrate salt]									solubility in ethanol / alcohol [1]: freely soluble; solubility in water [1]: very soluble
COc1ccccc1OCCNCC(O)COc1cccc2[nH]c3ccccc3c12 (stereo not shown) [Carvedilol]	Hepatic	7 to 10	No	25-35%	<2% Renal				
CC(C)(C)NCC(O)COc1cccc2c1CCC(=O)N2 (stereo not shown) [Carteolol]	Hepatic	6		85%		Renal	1 to 3	(50-70) %	
CC(C)(C)NC[C@H](O)COc1ccccc1C1CCCC1 [Penbutolol]	Hepatic	5	No	100%	90%		1.5 to 3	0%	
CC/C=C\C/C=C\C/C=C\C/C=C\C/C=C\CCCC(=O)O [EPA, eicosapentaenoic acid]									cleared in the first pass (liver) [3]: ≤ 90%
CC(C)NCC(O)COc1ccc(CC(N)=O)cc1 (stereo not shown) [Atenolol]				50-60%	85-100%		2 to 4		
C=CCOc1ccccc1OCC(O)CNC(C)C (stereo not shown) [Oxprenolol]	Hepatic	1.3 to 1.5		90%		Renal		< 5%	
CC(C)(C)NCC(O)COc1cccc2c1CC(O)C(O)C2 (stereo not shown) [Nadolol]	None	20 to 24	Yes	30%		Renal	4	70%	Half-life ([2]; stated in the text): 10 to 24 h; route of elimination ([2]; stated in the text): kidney excreted
CCc1cccc2c3c([nH]c12)C(CC)(CC(=O)O)OCC3 (single isomer, unassigned; (+)) [Etodolac, (+) 1,8-diethyl-1,3,4,9-tetrahydropyrano-[3,4-b]indole-1-acetic acid]									GI complications rate (among non-specific Cox inhibitors): lowest; cardiovascular events (compared with specific cox2 inhibitors): without the reported increase; solubility in ethanol / alcohol [1]: soluble; solubility in water [1]: insoluble
COCCc1ccc(OCC(O)CNC(C)C)cc1 (stereo not shown) [Metoprolol]		3 to 7							
CC(C)(C)NC[C@H](O)COc1nsnc1N1CCOCC1 [Timolol]	Hepatic	4	No	90%			1 to 2	20%	Elimination (route) ([2]; in vivo, fecal elimination): Fecal; Elimination (route) ([2]; in vivo, renal elimination): Renal
CC(CCc1ccccc1)NCC(O)c1ccc(O)c(C(N)=O)c1 (stereo not shown) [Labetalol]	Hepatic		No	100%	55-60%	Biliary/fecal		< 5%	Half-life (hr) ([2]; IV): ~5.5 IV hr; Half-life (hr) ([2]; oral): 6-8 oral hr; Time to Peak Effect Single dose ([2]; IV): 0.083 h (IV); Time to Peak Effect Single dose ([2]; oral): 2 to 4 h
CC(C)NCC(O)COc1ccc(COCCOC(C)C)cc1 (stereo not shown) [Bisoprolol]	Hepatic	9 to 12	No	80-90%		Renal		50%	Elimination, Biliary/fecal (%) [2]: <2% Fecal; Half-life ([2]; stated in the text): 10 to 12 h
CCCC(=O)Nc1ccc(OCC(O)CNC(C)C)c(C(C)=O)c1 (stereo not shown) [Acebutolol]		3 to 4		70%	30-40%				Elimination, Biliary/fecal (%) [2]: 50-60%
CC(C)NCC(O)c1ccc(NS(C)(=O)=O)cc1 (stereo not shown) [Sotalol]		7 to 18		>80%		Renal		75%	
CC(C)NCC(O)COc1cccc2[nH]ccc12 (stereo not shown) [Pindolol]		3 to 4		90-100%		Renal		40%	
COCCc1ccc(OCC(O)CNC(C)C)cc1 (racemic) [Metoprolol succinate, (±)1-(isopropylamino)-3-[p-(2-methoxyethyl)phenoxy]-2-propanol succinate (2:1) (salt)]									solubility in ethanol / alcohol [1]: sparingly soluble; solubility in water [1]: freely soluble
CC(C)NCC(O)COc1cccc2ccccc12.Cl (stereo not drawn) [Propranolol, 2-Propanol, 1-[(1-methylethyl)amino]-3-(1-naphthalenyloxy)-, hydrochloride, (+)-]		3 to 5							stability of the solid ([1]; crystalline solid): stable; solubility in ethanol / alcohol [1]: readily soluble; solubility in water [1]: readily soluble; adverse events ([4]; both previous trials): No adverse events were reported; elevated inflammatory cytokines [4, 5]: reduction; elevated resting energy expenditure [4, 5]: reduction; elevated inflammatory cytokines [4, 6]: reduction; elevated resting energy expenditure [4, 6]: reduction; rate of loss of lean body mass [4, 6]: reduction
CC(C)NCC(O)COc1ccc(CCOCC2CC2)cc1 (stereo not shown) [Betaxolol]	Hepatic	14 to 22	No	80-89%	> 80%		3 to 4	15%	
